Reference: patent publication US20260297542A1, “HERBICIDE RESISTANT PLANTS” (SYNGENTA CROP PROTECTION AG, priority 2023, published 2026)
Substitutions are numbered along the chain they refer to.

Legend:
Experiment in all cases: E. coli hemG growth inhibition by herbicide, AtPPO1 variant
Assay type in all cases: cell-based
Settings in all cases: read-out: percentage growth inhibition
AtPPO1 D448H = molecular target: T1, AtPPO1 D448H (Arabidopsis thaliana, UniProt P55826, D448H)
T1 construct: expressed in transfected cells; host or cells: E. coli BL21(DE3) hemG (pET24a, T7 promoter)
T1 sequence (P55826 35-537 D448H): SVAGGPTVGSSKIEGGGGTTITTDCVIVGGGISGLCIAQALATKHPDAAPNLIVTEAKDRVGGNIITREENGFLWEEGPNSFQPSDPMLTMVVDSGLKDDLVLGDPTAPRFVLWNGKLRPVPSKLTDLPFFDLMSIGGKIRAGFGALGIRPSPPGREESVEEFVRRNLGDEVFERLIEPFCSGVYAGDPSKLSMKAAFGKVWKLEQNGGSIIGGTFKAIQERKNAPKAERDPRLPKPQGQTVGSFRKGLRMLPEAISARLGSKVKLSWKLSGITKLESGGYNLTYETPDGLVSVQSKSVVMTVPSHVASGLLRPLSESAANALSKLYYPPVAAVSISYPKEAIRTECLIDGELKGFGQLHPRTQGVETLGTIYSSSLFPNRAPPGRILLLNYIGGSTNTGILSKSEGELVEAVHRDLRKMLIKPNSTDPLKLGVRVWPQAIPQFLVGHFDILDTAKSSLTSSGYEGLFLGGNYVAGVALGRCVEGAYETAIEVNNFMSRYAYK
Method in brief: (§1)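 Read-out is OD600 at 24 h post inoculation, converted to percent growth inhibition relative to DMSO. The hemG-deleted BL21(DE3) host relied on the plasmid-borne AtPPO1 variant, induced with 0.1 mM IPTG, with 6.25 ppm herbicide 0 or E or 0.78 ppm herbicide B present at 37° C.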

AtPPO1 K281E = molecular target: T2, AtPPO1 K281E (Arabidopsis thaliana, UniProt P55826, K281E)
T2 construct: expressed in transfected cells; host or cells: E. coli BL21(DE3) hemG (hemG replaced by CmR), pET24a plasmid
T2 sequence (P55826 35-537 K281E): T1 sequence (P55826 35-537 D448H) with K247E, H414D
Method in brief: as §1

AtPPO1 K281N = molecular target: T3, AtPPO1 K281N (Arabidopsis thaliana, UniProt P55826, K281N)
T3 construct: expressed in transfected cells; host or cells: E. coli BL21(DE3) hemG (hemG replaced by CmR), pET24a plasmid
T3 sequence (P55826 35-537 K281N): T1 sequence (P55826 35-537 D448H) with K247N, H414D
Method in brief: as §1

AtPPO1 Y362C = molecular target: T4, AtPPO1 Y362C (Arabidopsis thaliana, UniProt P55826, Y362C)
T4 construct: expressed in transfected cells; host or cells: E. coli BL21(DE3) hemG, pET24a plasmid
T4 sequence (P55826 35-537 Y362C): T1 sequence (P55826 35-537 D448H) with Y328C, H414D
Method in brief: as §1

Work on CC(C)N(C)S(=O)(=O)NC(=O)c1cc(-n2c(=O)cc(C(F)(F)F)n(C)c2=O)c(F)cc1Cl [Herbicide E, saflufenacil] yielded an inhibition at 6.25 ppm (AtPPO1 D448H) of 57%, an inhibition at 6.25 ppm (AtPPO1 K281E) of 61% and an inhibition at 6.25 ppm (AtPPO1 K281N) of 56%. The inhibition at 6.25 ppm (AtPPO1 Y362C) was 58%.

Work on C#CCN1C(=O)C(F)(F)Oc2cc(F)c(-n3c(=O)n(C)c(=S)n(C)c3=O)cc21 [Herbicide B, trifludimoxazin] yielded an inhibition at 0.78 ppm (AtPPO1 D448H) of 31%, an inhibition at 0.78 ppm (AtPPO1 K281E) of 37% and an inhibition at 0.78 ppm (AtPPO1 K281N) of 39%. The inhibition at 0.78 ppm (AtPPO1 Y362C) was 37%.

CCOC(=O)[C@]1(C)CC(c2cc(-n3c(=O)n(C)c(=S)n(C)c3=O)c(F)cc2Cl)=NO1 [Herbicide D, ethyl (5S)-3-[2-chloro-5-(3,5-dimethyl-2,6-dioxo-4-thioxo-1,3,5-triazinan-1-yl)-4-fluoro-phenyl]-5-methyl-4H-isoxazole-5-carboxylate] was tested, and the inhibition at 6.25 ppm (AtPPO1 D448H) was 26%, the inhibition at 6.25 ppm (AtPPO1 K281E) was 33% and the inhibition at 6.25 ppm (AtPPO1 K281N) was 37%. It also gave an inhibition at 6.25 ppm (AtPPO1 Y362C) of 43%.
